Laboratory results as given in patent publication US20240383906A1, “5-SUBSTITUTED PYRIDINE-2(1H)-KETONE COMPOUND AND USE THEREOF” (JIANGSU KANION PHARMACEUTICAL CO., LTD., priority 2021, published 2024).

Columns and labels:
[1] = system: WNT pathway STF reporter gene; experiment: Super-Top-Flash (STF) reporter gene inhibitory activity test; type: cell-based; conditions: HEK293 STF and L wnt3A cells 1:1, 24 hours, Bright-Glo
Procedure: HEK293 STF and L wnt3A cells were provided by Wuhan Heyan Biomedical Technology Co., Ltd., and Bright Glo was purchased from Promega.
• HEK293 STF and L wnt3A cells were seeded in a white 96-well plate at a ratio of 1:1, with 80 μL of cell suspension per well, each containing 20,000 HEK293 STF cells and 20,000 L wnt3A cells. The cell plate was placed in a carbon dioxide incubator for overnight culture.
The test compounds were 5-fold diluted with a multi-channel pipette to the 8th concentration, i.e., diluted from 400 μM to 5.12 nM, and duplicate experiment was set. 78 μL of culture medium was added to an intermediate plate, and then 2 μL of gradient diluted compound per well was transferred to the intermediate plate according to the corresponding position. After mixing well, the compound was transferred to the cell plate at 20 μL per well. The cell plate was placed in a carbon dioxide incubator and cultured for 24 hours.
100 μL of Promega Bright-Glo reagent was added to each well of the cell plate, and it was incubated at room temperature for 10 minutes to stabilize the luminescent signal. A multimode microplate reader was used for reading.
Using the raw data from the multimode microplate reader, the IC50 value could be obtained through curve fitting. Table 10 provides the data on the inhibitory activity of the compounds of the present disclosure on the Wnt signaling pathway.

Capan-2 cells = experiment: Capan-2 cell anti-proliferative activity test; type: cell-based; conditions: Homo sapiens, Capan-2, 120 h; 5 days, CellTiter-Glo
Procedure: Capan-2 cells were provided by Wuhan Heyan Biomedical Technology Co., Ltd., and CellTiter-Glo was purchased from Promega.
Capan-2 cells were seeded in a white 96-well plate, with 80 μL of cell suspension per well, each containing 5,000 Capan-2 cells. The cell plate was placed in a carbon dioxide incubator for overnight culture.
The test compounds were 3-fold diluted with a multi-channel pipette to the 9th concentration, i.e., diluted from 200 μM to 30 nM, and duplicate experiment was set. 78 μL of culture medium was added to an intermediate plate, and then 2 μL of gradient diluted compound per well was transferred to the intermediate plate according to the corresponding position. After mixing well, the compound was transferred to the cell plate at 20 μL per well. The cell plate was placed in a carbon dioxide incubator and cultured for 5 days. Another cell plate was prepared, and the signal value was read on the day of drug administration to serve as the maximum value (Max value in the equation below) for data analysis. 25 μL of cell viability chemiluminescence detection reagent was added to each well of this cell plate, and it was incubated at room temperature for 10 minutes to stabilize the luminescent signal. A multimode microplate reader was used for reading.
After the cell plate was cultured for 5 days, 25 μL of Promega CellTiter-Glo reagent was added to each well of the cell plate, and it was incubated at room temperature for 10 minutes to stabilize the luminescent signal. A multimode microplate reader was used for reading.
The IC50 value could be obtained through curve fitting, and the results of the inhibitory activity of the compounds of the present disclosure on the proliferation of Capan-2 cells are shown in Table 11.

[2] = Solvent pre-stability of crystal form A (suspension stirring, XRPD); type: physicochemical; conditions: for Crystal form after suspension in solvent (XRPD): stirred overnight at 25° C.
Procedure: (To ensure maximum suspension of the sample, the amount of compound and solvent was adjusted during the experiment based on the observed phenomena, and even the container used for the experiment was changed if necessary.) After adding a magneton, the suspension sample was placed on a magnetic heating stirrer (25° C.) for testing. After stirring overnight at 25° C., the suspension sample was filtered, and the solid sample on the filter cake was placed in a vacuum drying oven (45° C.) to dry overnight. The crystal form of the solid was obtained by X-ray powder diffraction (XRPD) detection.

[3] = Hygroscopicity of crystal form A (DVS); type: physicochemical
Procedure: • SMS DVS intrinsic dynamic vapor sorption instrument
Note: ΔW % represents the increase in weight due to moisture absorption of the test sample at 25±1° C. and 80±2% RH.

[4] = Solid pre-stability test of crystal form A (high temperature, high humidity, light; XRPD); type: physicochemical
Procedure: The sample placed under high temperature (60° C.) and high humidity (relative humidity 92.5% RH) conditions was sealed with aluminum foil to seal the mouth of the vial, and small holes were made in the aluminum foil to ensure that the sample could fully contact the ambient air, and it was placed in the corresponding constant temperature and humidity box. The light sample (open, not covered with aluminum foil) and the light control sample (the entire sample vial was covered with aluminum foil) were placed in the light box. At each time point, two samples were weighed separately as official test samples. […] The sample vial was wrapped with aluminum foil and small holes were made, and it was also placed in the corresponding constant temperature and humidity box. The sample was taken for testing (XRPD) on days 5 and 10, and the test results were compared with the initial test results on day 0.

## Cn1cc(-c2ccc(CNc3ncnn4c(-c5cncc(F)c5)ccc34)cn2)ccc1=O [Compound 1]
[1]
  IC50: 8.41 nM
Capan-2 cells
  IC50: 6.09 nM

## Cn1cc(-c2cnc(CNc3nccn4c(-c5cncc(F)c5)cnc34)cn2)ccc1=O [Compound 3]
Capan-2 cells
  IC50: 28 nM

## Cn1cc(-c2ccc(CNc3nccn4c(-c5cncc(F)c5)cnc34)cn2)ccc1=O [Compound 4]
Capan-2 cells
  IC50: 24.6 nM

## Cn1cc(-c2ccc(CNc3nccc4c3ncn4-c3cncc(F)c3)cn2)ccc1=O [Compound 5]
Capan-2 cells
  IC50: 11.7 nM

## Cn1cc(-c2ccc(CNc3nccn4c(-c5cncc(F)c5)cnc34)cc2)ccc1=O [Compound 6]
Capan-2 cells
  IC50: 22.2 nM

## Cn1cc(-c2ccc(CNc3nccc4c3ncn4-c3ccccc3)cn2)ccc1=O [Compound 7]
Capan-2 cells
  IC50: 5.94 nM

## Cn1cc(-c2cnc(CNc3nccn4c(-c5cc(F)cc(F)c5)cnc34)cn2)ccc1=O [crystal form A of compound 2]
[2]; 2-Methyltetrahydrofuran
  Crystal form after suspension in solvent (XRPD): Crystal form A
[2]; Acetone
  Crystal form after suspension in solvent (XRPD): Crystal form A
[2]; Acetone:water (2:1)
  Crystal form after suspension in solvent (XRPD): Crystal form A
[2]; Acetonitrile
  Crystal form after suspension in solvent (XRPD): Crystal form A
[2]; Dioxane
  Crystal form after suspension in solvent (XRPD): Crystal form A
[2]; Ethanol
  Crystal form after suspension in solvent (XRPD): Crystal form A
[2]; Ethanol:water (1:1)
  Crystal form after suspension in solvent (XRPD): Crystal form A
[2]; Ethyl acetate
  Crystal form after suspension in solvent (XRPD): Crystal form A
[2]; Isopropanol
  Crystal form after suspension in solvent (XRPD): Crystal form A
[2]; Methanol
  Crystal form after suspension in solvent (XRPD): Crystal form A
[2]; Methyl tert-butyl ether
  Crystal form after suspension in solvent (XRPD): Crystal form A
[2]; Tetrahydrofuran
  Crystal form after suspension in solvent (XRPD): Crystal form A
[2]; conclusion
  Stability in different solvents: good stability
[2]; n-Heptane
  Crystal form after suspension in solvent (XRPD): Crystal form A
[3]; 25° C. and 80% RH
  Hygroscopicity classification: no or almost no hygroscopicity
[3]; 25° C., 80% RH, compared to initial humidity of 30% (cycle 1 adsorption)
  Weight gain due to moisture absorption: 0.07%
[3]; 25° C., humidity continued to rise to 90%
  Weight decrease of the sample: 0.15%
[3]; 25° C., humidity continued to rise to 95% (cycle 1 adsorption)
  Weight gain due to moisture absorption: 0.01%
[3]; 30-95-0-95% RH/25° C.
  Crystal form before and after the DVS test (XRPD): the crystal form did not change
[4]; 0 days
  Crystal form (XRPD): Crystal form A
[4]; High humidity (relative humidity 92.5%, open), 5 days
  Crystal form (XRPD): Crystal form A
[4]; High humidity (relative humidity 92.5%, open), 10 days
  Crystal form (XRPD): Crystal form A
[4]; High temperature (60° C., open), 5 days
  Crystal form (XRPD): Crystal form A
[4]; High temperature (60° C., open), 10 days
  Crystal form (XRPD): Crystal form A
[4]; Light (total illumination = 1.2 × 10^6 Lux · hr/near ultraviolet = 200 w · hr/m^2, open), 5 days
  Crystal form (XRPD): Crystal form A
[4]; Light (total illumination = 1.2 × 10^6 Lux · hr/near ultraviolet = 200 w · hr/m^2, open), 10 days
  Crystal form (XRPD): Crystal form A
[4]; conclusion
  Stability under high temperature, high humidity, and strong light: good stability
